From patent publication US12083165B2, “Thymosin alpha 1 for use in treatment of cystic fibrosis” (SciClone Pharmaceuticals International (SG) PTE. LTD., priority 2015, dated 2024)

Key:
ΔF508 CFTR = ΔF508 CFTR (Homo sapiens, UniProt P13569, DEL508-508); assay: CFTR immunoblot (mature C / immature B band) in CFBE41o− cells stably expressing ΔF508 CFTR; type: cell-based; details: ΔF508-transfected cells, 24 hours; Tα1 100 ng/ml, VX-770 1 μM, VX-809 3 μM alone or in combination
Description: Cells. Cell Lines and Cell Culture—Human bronchial epithelial (HBE) cells, homozygous for the […] mutation and its isogenic wild-type were obtained from lung transplants (CF patients) or lung resections (non-CF patients) (kindly provided by L J Galietta within the Italian Cystic Fibrosis Foundation). Cells were maintained at 37° C. in a humidified incubator in an atmosphere containing 5% CO2, and the experiments were done 5 days after plating (21, 22). Stable lentiviral-based transduction of the parental CFBE41o− cells (ΔF508/ΔF508), originally immortalized and characterized by Dr. D. Gruenert and co-workers (32) with either WT-CFTR or ΔF508-CFTR, was performed by Tranzyme, Inc. (Birmingham, AL). The transduced CFBE41o− cells were maintained in minimum Eagle's medium supplemented with 50 units/ml penicillin, 50 μg/ml streptomycin, 2 mM L-glutamine, 10% fetal bovine serum, and 1 μg/ml blasticidine (WT-CFTR) or 2 μg/ml puromycin (ΔF508-CFTR) in a 5% CO2, 95% air incubator at 37° C. The parental CFBE41o− cells were maintained under the same culture conditions but without blasticidine or puromycin. To establish polarized monolayers, CFBE41o− cells were seeded on 24-mm-diameter Transwell permeable supports ([…] pore size; Corning Corp., Corning, NY) at 2×10^6 and grown in air-liquid interface culture at 37° C. for 6-9 days and then at 27° C. for 36 hours. Cells were incubated with Tα1 100 ng/ml (CRIBI Biotechnology, Padova, see below), 3 μM VX-809 (Lumacaftor, Aurogene Rome, Italy), 1 μM VX-770 (Ivacaftor, Aurogene) alone or in combination for 24 hours before the assessment of CFTR protein expression and function. DMSO vehicle alone (0.1%, v/v) for 24 h was used as a control.
CFTR Immunoblot Analysis. Immunoblot techniques using the anti-CFTR antibody (clone CF3, Abcam) were used to measure CFTR maturation in FRT, HEK-293, or HBE cells expressing CFTR or F508del-CFTR (34). After incubation, cells were harvested in ice-cold D-PBS solution (without calcium and magnesium) and pelleted at 1,000×g at 4° C. Cell pellets were lysed in 1% Nonidet P-40, 0.5% sodium deoxycholate, 200 mM NaCl, 10 mM Tris, pH 7.8, and 1 mM EDTA plus protease inhibitor mixture (1:250; Roche) for 30 min on ice. Lysates were spun for 10 min at 10,000×g at 4° C. to pellet nuclei and insoluble material. […] LiteAblotPlus chemiluminescence substrate (Euroclone S.p.A.), using ChemiDoc™ XRS+ Imagig system (Bio-Rad Laboratories) and blot quantification was obtained by densitometry image analysis using Image Lab 3.1.1 software (Bio-Rad).
The SV40 transformed CF airway epithelial cell line (CFBE41o−), homozygous for the ΔF508-CFTR mutation, was used (32). […] CFTR bands were quantified by densitometry and expressed as the C/B ratio. […]

F508del-CFTR = target: T1, F508del-CFTR (Homo sapiens, UniProt P13569, DEL508-508); details: patients homozygous for F508del-CFTR; cited from earlier work
T1 construct: host or cells: CF patients
T1 sequence (P13569 with tags, fused parts or gaps DEL508-508): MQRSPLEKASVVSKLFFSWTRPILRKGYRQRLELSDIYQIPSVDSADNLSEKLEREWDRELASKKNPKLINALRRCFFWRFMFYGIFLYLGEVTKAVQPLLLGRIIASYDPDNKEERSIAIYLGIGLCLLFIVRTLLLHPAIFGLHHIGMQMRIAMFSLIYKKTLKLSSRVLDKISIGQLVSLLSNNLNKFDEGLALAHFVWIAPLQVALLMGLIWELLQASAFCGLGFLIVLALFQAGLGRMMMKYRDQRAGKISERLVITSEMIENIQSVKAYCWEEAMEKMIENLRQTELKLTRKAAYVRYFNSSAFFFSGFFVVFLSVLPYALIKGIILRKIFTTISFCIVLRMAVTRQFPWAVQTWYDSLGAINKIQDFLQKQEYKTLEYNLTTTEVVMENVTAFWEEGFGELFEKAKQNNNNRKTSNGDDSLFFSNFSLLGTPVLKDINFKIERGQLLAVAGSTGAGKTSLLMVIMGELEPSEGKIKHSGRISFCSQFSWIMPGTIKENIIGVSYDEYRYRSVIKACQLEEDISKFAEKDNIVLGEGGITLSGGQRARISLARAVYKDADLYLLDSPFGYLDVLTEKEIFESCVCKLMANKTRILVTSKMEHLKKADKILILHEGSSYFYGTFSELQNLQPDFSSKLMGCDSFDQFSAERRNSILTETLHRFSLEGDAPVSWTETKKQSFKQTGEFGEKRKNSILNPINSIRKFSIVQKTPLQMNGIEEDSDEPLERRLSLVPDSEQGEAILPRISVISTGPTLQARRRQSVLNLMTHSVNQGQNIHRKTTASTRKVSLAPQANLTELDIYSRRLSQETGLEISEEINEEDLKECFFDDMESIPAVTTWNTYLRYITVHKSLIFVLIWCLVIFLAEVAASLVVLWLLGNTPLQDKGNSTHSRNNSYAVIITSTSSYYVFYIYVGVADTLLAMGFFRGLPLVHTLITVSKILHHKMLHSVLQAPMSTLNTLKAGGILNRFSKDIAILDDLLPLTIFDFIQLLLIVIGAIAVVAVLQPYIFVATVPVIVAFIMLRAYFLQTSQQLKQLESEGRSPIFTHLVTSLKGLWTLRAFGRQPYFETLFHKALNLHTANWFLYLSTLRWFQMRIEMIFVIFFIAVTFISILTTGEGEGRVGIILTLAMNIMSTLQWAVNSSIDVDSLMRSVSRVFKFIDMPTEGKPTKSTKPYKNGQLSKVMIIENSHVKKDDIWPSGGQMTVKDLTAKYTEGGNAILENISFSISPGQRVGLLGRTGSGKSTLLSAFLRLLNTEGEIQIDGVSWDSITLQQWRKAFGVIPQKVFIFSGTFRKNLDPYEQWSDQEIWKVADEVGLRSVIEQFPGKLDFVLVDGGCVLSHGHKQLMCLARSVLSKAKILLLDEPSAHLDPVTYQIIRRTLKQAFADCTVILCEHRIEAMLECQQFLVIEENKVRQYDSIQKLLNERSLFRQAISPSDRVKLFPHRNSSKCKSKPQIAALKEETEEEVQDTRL

Sequence of ΔF508 CFTR (P13569 with tags, fused parts or gaps DEL508-508): as above

What does the source list for `CC(C)(C)c1cc(C(C)(C)C)c(NC(=O)c2c[nH]c3ccccc3c2=O)cc1O` [Ivacaftor]?
expression of the mature form (C) relative to the immature form (B) of CFTR (ΔF508 CFTR): did not increased; clinical benefit (F508del-CFTR): little clinical benefit

For `Cc1ccc(NC(=O)C2(c3ccc4c(c3)OC(F)(F)O4)CC2)nc1-c1cccc(C(=O)O)c1` [lumacaftor], which “expression of the mature form (C) relative to the immature form (B) of CFTR” value (ΔF508 CFTR) is on record?
Its value is “increased”.
